Converted amounts (≈) assume the structure as drawn.
Tests used:
[1] = Kinetic aqueous solubility of compound at pH 7.4 at 5 to 300 uM; type: physicochemical; details: dose 5-300 µM, read-out: Kinetic_solubility
[2] = Efflux ratio in dog MDCK cells; type: ADME, cell-based, Canis lupus familiaris
[3] = Apparent permeability across basolateral to apical side in MDCK cells; type: ADME, cell-based, Canis lupus familiaris; details: dog
[4] = Metabolic stability in mouse liver microsomes assessed as half life in presence of NADPH incubated for 30 mins by LC-MS/MS analysis; type: ADME, Microsome
[5] = Unbound fraction in mouse microsome incubated for 4 hrs by LC-MS/MS analysis; type: ADME; details: microsomes
[6] = Solubility of compound at pH 7.4; type: physicochemical; details: buffer
[7] = Lipophilicity, logD of the compound in n-octanol/aqueous at pH 7.4 incubated overnight by UPLC analysis; type: physicochemical
[8] = Apparent permeability across apical to basolateral side in MDCK cells; type: ADME, cell-based, Canis lupus familiaris; details: dog
[9] = Dissociation constant, pKa of the compound by potentiometric titration analysis; type: physicochemical

| SMILES | solubility kinetic [1] [µM] | Ratio [2] | Papp [3] | half-life [4] [min] | fraction unbound at 4 h [5] | solubility [6] [µM] | logD [7] | Papp [8] | pKa [9] | efflux ratio [2] | Papp B→A [3] [×10⁻⁶ cm/s] | Papp A→B [8] [×10⁻⁶ cm/s] |
| --- | --- | --- | --- | --- | --- | --- | --- | --- | --- | --- | --- | --- |
| CCCc1cn(CC[C@H](C)Oc2cc([C@@H](C(=O)N3CCCC[C@H]3C(=O)OC)C3CCCCC3)cc(OC)c2OC)nn1 | 65 (≈ 38 µg/mL) | – | – | – | – | – | – | – | – | – | – | – |
| C=CCOc1ccccc1CN(CC(=O)N1CCC(CC(=O)NC2CC2)CC1)C1CCN(C)CC1 | – | 2 | 11 10^-6 cm/s | 120 | 0.76 | 244 (≈ 118 µg/mL) | 0.5 | 1 10^-6 cm/s | – | – | – | – |
| COc1cc2cc(c1OC)O[C@@H](C)CCn1cc(nn1)CCCCOC(=O)[C@@H]1CCCCN1C(=O)[C@H]2C1CCCCC1 | 100 (≈ 58.3 µg/mL) | – | – | – | – | – | – | – | – | – | – | – |
| C=CCOC(=O)[C@@H]1CCCCN1C(=O)[C@H](c1cc(OC)c(OC)c(OC)c1)C1CCCCC1 | 12 (≈ 5.51 µg/mL) | – | – | – | – | – | – | – | – | – | – | – |
| CCC[C@@H](NC(=O)c1cccnc1OC)C(=O)N1CCC(CCN(CCOC)C2CCN(C)CC2)CC1 | – | 38 | 88 10^-6 cm/s | 103 | 0.77 | 303 (≈ 157 µg/mL) | 0.8 | 93 10^-6 cm/s | – | – | – | – |
| CCCOC(=O)[C@@H]1CCCCN1C(=O)[C@H](c1cc(OC)c(OC)c(OC)c1)C1CCCCC1 | 45 (≈ 20.8 µg/mL) | – | – | – | – | – | – | – | – | – | – | – |
| CCCc1cn(CCCOc2cc([C@@H](C(=O)N3CCCC[C@H]3C(=O)OC)C3CCCCC3)cc(OC)c2OC)nn1 | 65 (≈ 37.1 µg/mL) | – | – | – | – | – | – | – | – | – | – | – |
| COc1cc2cc(c1OC)OC/C=C/COC(=O)[C@@H]1CCCCN1C(=O)[C@H]2C1CCCCC1 | 103 (≈ 47.1 µg/mL) | – | – | – | – | – | – | – | – | – | – | – |
| COc1cc2cc(OC)c1OCCCCOC(=O)[C@@H]1CCCCN1C(=O)[C@H]2C1CCCCC1 | 137 (≈ 63 µg/mL) | – | – | – | – | – | – | – | – | – | – | – |
| C=CCOc1ccccc1CN(CC(=O)N1CCC(CC(=O)NC2CC2)CC1)Cc1ccccc1 | – | 66 | 33 10^-6 cm/s | 1 | 0.57 | 83.5 (≈ 39.7 µg/mL) | 3.8 | 8 10^-6 cm/s | – | – | – | – |
| C=CCOc1ccccc1CN(CC(=O)N1CCC(CC(=O)NC2CC2)CC1)C(C)C | – | 2 | 57 10^-6 cm/s | 16 | 1 | 167 (≈ 71.4 µg/mL) | 1 | 2 10^-6 cm/s | – | – | – | – |
| COc1cc2cc(c1OC)OCCCn1cc(nn1)CCCCOC(=O)[C@@H]1CCCCN1C(=O)[C@H]2C1CCCCC1 | 100 (≈ 56.9 µg/mL) | – | – | – | – | – | – | – | – | – | – | – |

The remaining lines, values ahead:

| solubility kinetic [1] [µM] | Ratio [2] | Papp [3] | half-life [4] [min] | fraction unbound at 4 h [5] | solubility [6] [µM] | logD [7] | Papp [8] | pKa [9] | efflux ratio [2] | Papp B→A [3] [×10⁻⁶ cm/s] | Papp A→B [8] [×10⁻⁶ cm/s] | SMILES |
| --- | --- | --- | --- | --- | --- | --- | --- | --- | --- | --- | --- | --- |
| – | 69 | 49 10^-6 cm/s | 120 | 1 | 287 (≈ 134 µg/mL) | 3.2 | 32 10^-6 cm/s | 7.4 | – | – | – | CCOc1ccccc1C(=O)N1CCN(Cc2ccccc2)C[C@@H]1C(=O)NC[C@H]1CCCCO1 |
| – | 4 | 68 10^-6 cm/s | 5 | 1 | 192 (≈ 87.1 µg/mL) | 1.8 | 3 10^-6 cm/s | – | – | – | – | C=CCOc1ccccc1CN(CC(=O)N1CCC(CC(=O)NC2CC2)CC1)C1CCCC1 |
| – | 12 | 44 10^-6 cm/s | 1 | 0.68 | 170 (≈ 75.4 µg/mL) | 2.5 | 29 10^-6 cm/s | – | – | – | – | CCOc1ccccc1C(=O)N1CCN(C2CCCC2)C[C@@H]1C(=O)NC[C@@H]1CCCCO1 |
| – | 29 | 50 10^-6 cm/s | 120 | 0.68 | 303 (≈ 134 µg/mL) | 2.5 | 32 10^-6 cm/s | – | – | – | – | CCOc1ccccc1C(=O)N1CCN(C2CCCC2)C[C@@H]1C(=O)NC[C@H]1CCCCO1 |
| – | – | – | 7.4 | – | 303 (≈ 143 µg/mL) | 1.5 | – | – | 5.4 | 56 | 10 | CCC[C@H]1NC(=O)c2cccnc2OCCOCCN(C2CCCC2)CC2CCN(CC2)C1=O |
| – | 21 | 49 10^-6 cm/s | 1 | 1 | 237 (≈ 110 µg/mL) | 3.2 | 33 10^-6 cm/s | 7.4 | – | – | – | CCOc1ccccc1C(=O)N1CCN(Cc2ccccc2)C[C@@H]1C(=O)NC[C@@H]1CCCCO1 |

Reference: ChEMBL document CHEMBL6153082, “Macrocyclization as a Strategy for Kinetic Solubility Improvement: A Comparative Analysis of Matched Molecular Pairs” (J Med Chem, 2025)
